{"source": "patent US8557989B2", "about": "“Electrochemical affinity biosensor system and methods” (priority 2003, dated 2013)", "origin": "cited, not measured here", "biological_target": "glucose oxidase (Aspergillus niger, UniProt P13006)", "sequence (P13006 17-605)": "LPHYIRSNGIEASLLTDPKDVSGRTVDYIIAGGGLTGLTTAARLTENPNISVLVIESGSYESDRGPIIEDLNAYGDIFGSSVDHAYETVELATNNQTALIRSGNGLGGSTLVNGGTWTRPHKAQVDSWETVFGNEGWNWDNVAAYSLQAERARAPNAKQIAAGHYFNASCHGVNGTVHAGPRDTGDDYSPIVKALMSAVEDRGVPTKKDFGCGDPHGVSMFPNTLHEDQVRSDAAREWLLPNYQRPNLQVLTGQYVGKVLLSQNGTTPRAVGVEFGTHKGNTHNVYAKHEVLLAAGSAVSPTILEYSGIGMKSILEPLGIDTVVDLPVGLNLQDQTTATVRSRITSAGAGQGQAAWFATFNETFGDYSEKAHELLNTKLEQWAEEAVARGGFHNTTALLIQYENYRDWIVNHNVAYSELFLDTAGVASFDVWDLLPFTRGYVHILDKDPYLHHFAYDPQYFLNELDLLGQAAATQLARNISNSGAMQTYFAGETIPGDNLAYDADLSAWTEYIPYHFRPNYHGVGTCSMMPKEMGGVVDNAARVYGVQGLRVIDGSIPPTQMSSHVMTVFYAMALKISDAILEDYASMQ", "conditions": "with glucose oxidase"}
{"substance": "bis(2,2′-bipyridyl) imidazole chloro osmium (III) dichloride [osmium free mediator]", "values": [{"measurement": "mediation kinetics, times faster than ferricyanide", "result": "about 500 times"}]}
